The source made the active and inactive calls. The rule behind the calls is not given here.

This data set relates to CCRIS mutagenicity, Ames/micronucleus/aberration tests. The data set is described as follows: CCRIS mutagenicity studies.
The mark [1] stands for this setting: Test System: AMES SALMONELLA TYPHIMURIUM, Strain/Indicator: TA98, Metabolic Activation: NONE, Method: STANDARD PLATE.
Where [2] appears, read: Test System: AMES SALMONELLA TYPHIMURIUM, Strain/Indicator: TA98, Metabolic Activation: RAT, LIVER, S-9, AROCLOR 1254, Method: STANDARD PLATE.
The mark [3] stands for this setting: Test System: AMES SALMONELLA TYPHIMURIUM, Strain/Indicator: TA100, Metabolic Activation: NONE, Method: STANDARD PLATE.
Setting [4] is: Test System: AMES SALMONELLA TYPHIMURIUM, Strain/Indicator: TA100, Metabolic Activation: RAT, LIVER, S-9, AROCLOR 1254, Method: STANDARD PLATE.

For the compound `CC(C)=O`, the mutagenic call is, setting by setting: (End Point: IN VITRO CHROMOSOMAL ABERRATIONS, Test System: CHO-LB CELLS, Metabolic Activation: NONE) “inactive; negative”; (End Point: IN VITRO CHROMOSOMAL ABERRATIONS, Test System: CHO-LB CELLS, Metabolic Activation: RAT, LIVER, S-9, AROCLOR 1254) “inactive; negative”; (Test System: AMES SALMONELLA TYPHIMURIUM, Strain/Indicator: TA97, Metabolic Activation: HAMSTER, LIVER, S-9, AROCLOR 1254 (10 OR 30%), Method: PREINCUBATION) “inactive; negative”; (Test System: AMES SALMONELLA TYPHIMURIUM, Strain/Indicator: TA97, Metabolic Activation: NONE, Method: PREINCUBATION) “inactive; negative”; (Test System: AMES SALMONELLA TYPHIMURIUM, Strain/Indicator: TA97, Metabolic Activation: RAT, LIVER, S-9, AROCLOR 1254 (10 OR 30%), Method: PREINCUBATION) “inactive; negative”; (Test System: AMES SALMONELLA TYPHIMURIUM, Strain/Indicator: TA97, Metabolic Activation: RAT, LIVER, S-9, AROCLOR 1254, Method: PREINCUBATION) “inactive; negative”. Besides, the mutagenic call is “inactive; negative” (Test System: AMES SALMONELLA TYPHIMURIUM, Strain/Indicator: TA98, Metabolic Activation: HAMSTER, LIVER, S-9, AROCLOR 1254 (10 OR 30%), Method: PREINCUBATION); “inactive; negative” (Test System: AMES SALMONELLA TYPHIMURIUM, Strain/Indicator: TA98, Metabolic Activation: NONE, Method: PREINCUBATION); “inactive; negative” (Test System: AMES SALMONELLA TYPHIMURIUM, Strain/Indicator: TA98, Metabolic Activation: RAT, LIVER, S-9, AROCLOR 1254 (10 OR 30%), Method: PREINCUBATION); “inactive; negative” (Test System: AMES SALMONELLA TYPHIMURIUM, Strain/Indicator: TA100, Metabolic Activation: HAMSTER, LIVER, S-9, AROCLOR 1254 (10 OR 30%), Method: PREINCUBATION); “inactive; negative” (Test System: AMES SALMONELLA TYPHIMURIUM, Strain/Indicator: TA100, Metabolic Activation: NONE, Method: PREINCUBATION); “inactive; negative” (Test System: AMES SALMONELLA TYPHIMURIUM, Strain/Indicator: TA100, Metabolic Activation: RAT, LIVER, S-9, AROCLOR 1254 (10 OR 30%), Method: PREINCUBATION). Also, the mutagenic call was “inactive; negative” (Test System: AMES SALMONELLA TYPHIMURIUM, Strain/Indicator: TA102, Metabolic Activation: NONE, Method: PREINCUBATION); “inactive; negative” (Test System: AMES SALMONELLA TYPHIMURIUM, Strain/Indicator: TA102, Metabolic Activation: RAT, LIVER, S-9, AROCLOR 1254, Method: PREINCUBATION); “inactive; negative” (Test System: AMES SALMONELLA TYPHIMURIUM, Strain/Indicator: TA1535, Metabolic Activation: HAMSTER, LIVER, S-9, AROCLOR 1254 (10 OR 30%), Method: PREINCUBATION); “inactive; negative” (Test System: AMES SALMONELLA TYPHIMURIUM, Strain/Indicator: TA1535, Metabolic Activation: NONE, Method: PREINCUBATION); “inactive; negative” (Test System: AMES SALMONELLA TYPHIMURIUM, Strain/Indicator: TA1535, Metabolic Activation: RAT, LIVER, S-9, AROCLOR 1254 (10 OR 30%), Method: PREINCUBATION); “inactive; negative” (Test System: AMES SALMONELLA TYPHIMURIUM, Strain/Indicator: TA1537, Metabolic Activation: HAMSTER, LIVER, S-9, AROCLOR 1254 (30%), Method: PREINCUBATION). Also, the mutagenic call is “inactive; negative” (Test System: AMES SALMONELLA TYPHIMURIUM, Strain/Indicator: TA1537, Metabolic Activation: NONE, Method: PREINCUBATION) and “inactive; negative” (Test System: AMES SALMONELLA TYPHIMURIUM, Strain/Indicator: TA1537, Metabolic Activation: RAT, LIVER, S-9, AROCLOR 1254 (30%), Method: PREINCUBATION).
On to `Nc1cccc2cnsc12`, for which, under setting [1], the mutagenic call is “active; positive”.
As for `COc1cc2c(c(OC)c1OC)-c1ccc(OC)c(=O)cc1[C@@H](NC(C)=O)CC2`, the mutagenic call is “active; positive (ploidy changes)” (End Point: IN VITRO CHROMOSOMAL ABERRATIONS, Test System: CHINESE HAMSTER OVARY CELLS, Metabolic Activation: NONE); “inactive; negative” (End Point: IN VITRO CHROMOSOMAL ABERRATIONS, Test System: CHINESE HAMSTER OVARY CELLS, Metabolic Activation: RAT, LIVER, S-9, AROCLOR 1254); “active; positive” (End Point: IN VITRO MICRONUCLEUS, Test System: CHL/IU CELLS, Metabolic Activation: NONE); “active; positive” (End Point: IN VIVO MICRONUCLEUS, Test System: BLOOD ERYTHROCYTES, Species: MOUSE, Strain/Sex: CD-1/MALE, Route: ORAL); “active; positive” (End Point: In vitro micronucleus, Test System: Mouse lymphoma L5178Y cells, Metabolic Activation: None); “active; positive for binucleated and multinucleated cells when agent administered after” (End Point: In vivo micronucleus, Test System: Micronucleated, binucleated and multinucleated hepatocytes, Species: Mouse, Strain/Sex: ddY/Male, Route: Intravenous). The mutagenic call by setting is: (Test System: AMES SALMONELLA TYPHIMURIUM, Strain/Indicator: TA98, Metabolic Activation: HAMSTER, LIVER, S-9, AROCLOR 1254, Method: STANDARD PLATE) “inactive; negative”; under setting [1], “inactive; negative”; under setting [2], “inactive; negative”; (Test System: AMES SALMONELLA TYPHIMURIUM, Strain/Indicator: TA100, Metabolic Activation: HAMSTER, LIVER, S-9, AROCLOR 1254, Method: STANDARD PLATE) “inactive; negative”; under setting [3], “inactive; negative”; under setting [4], “inactive; negative”. Besides, the mutagenic call reads like this: (Test System: AMES SALMONELLA TYPHIMURIUM, Strain/Indicator: TA1535, Metabolic Activation: HAMSTER, LIVER, S-9, AROCLOR 1254, Method: STANDARD PLATE) “inactive; negative”; (Test System: AMES SALMONELLA TYPHIMURIUM, Strain/Indicator: TA1535, Metabolic Activation: NONE, Method: STANDARD PLATE) “inactive; negative”; (Test System: AMES SALMONELLA TYPHIMURIUM, Strain/Indicator: TA1535, Metabolic Activation: RAT, LIVER, S-9, AROCLOR 1254, Method: STANDARD PLATE) “inactive; negative”; (Test System: AMES SALMONELLA TYPHIMURIUM, Strain/Indicator: TA1537, Metabolic Activation: HAMSTER, LIVER, S-9, AROCLOR 1254, Method: STANDARD PLATE) “inactive; negative”; (Test System: AMES SALMONELLA TYPHIMURIUM, Strain/Indicator: TA1537, Metabolic Activation: NONE, Method: STANDARD PLATE) “inactive; negative”; (Test System: AMES SALMONELLA TYPHIMURIUM, Strain/Indicator: TA1537, Metabolic Activation: RAT, LIVER, S-9, AROCLOR 1254, Method: STANDARD PLATE) “inactive; negative”. Further, the mutagenic call is, setting by setting: (Test System: AMES SALMONELLA TYPHIMURIUM, Strain/Indicator: TA1538, Metabolic Activation: HAMSTER, LIVER, S-9, AROCLOR 1254, Method: STANDARD PLATE) “inactive; negative”; (Test System: AMES SALMONELLA TYPHIMURIUM, Strain/Indicator: TA1538, Metabolic Activation: NONE, Method: STANDARD PLATE) “inactive; negative”; (Test System: AMES SALMONELLA TYPHIMURIUM, Strain/Indicator: TA1538, Metabolic Activation: RAT, LIVER, S-9, AROCLOR 1254, Method: STANDARD PLATE) “inactive; negative”; (Test System: MOUSE LYMPHOMA, Strain/Indicator: L5178Y (TK+/TK-), Metabolic Activation: NONE) “active; positive”; (Test System: MOUSE LYMPHOMA, Strain/Indicator: L5178Y (TK+/TK-), Metabolic Activation: NONE, Method: SUSPENSION/PLATE) “inactive; negative. reevaluation of results: negative”; (Test System: MOUSE LYMPHOMA, Strain/Indicator: L5178Y (TK+/TK-), Metabolic Activation: RAT, LIVER, S-9, AROCLOR 1254, Method: SUSPENSION/PLATE) “inactive; negative. reevaluation of results: negative”. The mutagenic call (Test System: MOUSE LYMPHOMA, Strain/Indicator: L5178Y(TK+/TK-), Metabolic Activation: NONE, Method: MICROWELL) is “active; positive” and the mutagenic call (Test System: Mouse lymphoma, Strain/Indicator: L5178Y (tk+/tk-)/Trifluorothymidine, Metabolic Activation: None, Method: Microtiter) was “inactive; negative”.
For the compound `COC(=O)Nc1nc2ccc(/C(=N/O)c3ccc(F)cc3)cc2[nH]1`, the mutagenic call runs as follows: under setting [1], “inactive; negative”; under setting [2], “active; positive”; under setting [3], “inactive; negative”; under setting [4], “inactive; negative”.

Values taken from PubChem BioAssay AID1259407 (Chemical Carcinogenesis Research Information System (CCRIS), 2018).
